This passage reports IC50 and inhibition results from patent publication EP4813993A1, “COMPOUND, PREPARATION METHOD THEREFOR, AND USE THEREOF” (Sichuan Kelun Pharmaceutical Research Institute Co., Ltd., priority 2023, dated 2025).

The target in one test is T1, Nav1.8 channels (Homo sapiens, UniProt Q9Y5Y9).
T1 construct: expressed in transfected cells
T1 sequence (Q9Y5Y9 whole entry): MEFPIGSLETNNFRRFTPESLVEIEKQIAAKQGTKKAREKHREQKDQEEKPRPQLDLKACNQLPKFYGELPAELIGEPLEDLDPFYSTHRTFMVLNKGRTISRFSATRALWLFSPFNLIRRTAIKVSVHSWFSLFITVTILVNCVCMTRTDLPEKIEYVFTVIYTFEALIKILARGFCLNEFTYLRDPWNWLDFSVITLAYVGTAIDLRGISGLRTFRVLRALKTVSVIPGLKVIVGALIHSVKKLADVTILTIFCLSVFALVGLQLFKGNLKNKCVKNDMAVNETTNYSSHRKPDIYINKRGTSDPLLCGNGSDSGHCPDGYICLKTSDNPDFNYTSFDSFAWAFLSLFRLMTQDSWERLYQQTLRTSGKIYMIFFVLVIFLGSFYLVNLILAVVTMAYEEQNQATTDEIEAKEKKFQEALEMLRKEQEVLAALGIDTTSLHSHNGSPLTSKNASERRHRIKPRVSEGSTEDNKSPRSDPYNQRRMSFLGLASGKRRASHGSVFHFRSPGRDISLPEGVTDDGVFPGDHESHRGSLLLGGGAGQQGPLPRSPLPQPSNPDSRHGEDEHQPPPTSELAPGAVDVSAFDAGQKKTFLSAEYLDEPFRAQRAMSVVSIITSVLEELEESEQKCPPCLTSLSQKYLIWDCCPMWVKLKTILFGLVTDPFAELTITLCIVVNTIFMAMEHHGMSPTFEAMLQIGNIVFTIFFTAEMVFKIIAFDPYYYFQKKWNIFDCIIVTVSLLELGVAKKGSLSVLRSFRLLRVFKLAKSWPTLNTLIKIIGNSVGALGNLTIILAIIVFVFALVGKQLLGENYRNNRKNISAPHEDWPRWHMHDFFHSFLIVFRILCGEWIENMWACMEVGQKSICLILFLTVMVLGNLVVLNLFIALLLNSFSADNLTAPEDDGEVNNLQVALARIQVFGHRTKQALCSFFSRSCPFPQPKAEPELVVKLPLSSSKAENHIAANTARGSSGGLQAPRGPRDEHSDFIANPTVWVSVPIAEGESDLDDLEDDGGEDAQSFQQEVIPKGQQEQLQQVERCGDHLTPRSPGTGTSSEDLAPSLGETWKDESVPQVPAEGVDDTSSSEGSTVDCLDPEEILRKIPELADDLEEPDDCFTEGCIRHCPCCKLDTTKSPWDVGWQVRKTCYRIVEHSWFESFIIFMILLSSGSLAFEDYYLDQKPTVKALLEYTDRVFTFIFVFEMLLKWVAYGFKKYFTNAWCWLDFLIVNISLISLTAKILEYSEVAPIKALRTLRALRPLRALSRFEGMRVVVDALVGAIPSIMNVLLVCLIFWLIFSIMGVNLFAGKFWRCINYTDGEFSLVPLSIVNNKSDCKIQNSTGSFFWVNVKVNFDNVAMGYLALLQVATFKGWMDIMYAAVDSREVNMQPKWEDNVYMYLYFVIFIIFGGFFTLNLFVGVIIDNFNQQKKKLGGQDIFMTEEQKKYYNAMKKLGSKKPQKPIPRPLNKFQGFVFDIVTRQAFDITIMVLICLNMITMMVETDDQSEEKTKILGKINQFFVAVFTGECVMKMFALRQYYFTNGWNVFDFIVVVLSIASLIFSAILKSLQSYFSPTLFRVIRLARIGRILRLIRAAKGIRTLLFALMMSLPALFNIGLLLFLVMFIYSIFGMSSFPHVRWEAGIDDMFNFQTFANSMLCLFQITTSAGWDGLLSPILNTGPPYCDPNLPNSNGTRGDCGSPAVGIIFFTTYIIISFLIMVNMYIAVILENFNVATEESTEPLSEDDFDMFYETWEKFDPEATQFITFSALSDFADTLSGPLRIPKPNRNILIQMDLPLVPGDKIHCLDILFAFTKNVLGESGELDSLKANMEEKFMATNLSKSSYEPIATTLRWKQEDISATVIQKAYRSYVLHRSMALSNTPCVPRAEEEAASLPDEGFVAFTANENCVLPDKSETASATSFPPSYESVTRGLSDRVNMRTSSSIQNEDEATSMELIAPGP
As to the kind of experiment: Manual patch-clamp, current of stably overexpressed Nav1.8 channels (resting state voltage program). Type of test: cell-based.
Settings: not given
In a few lines:
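Whole-cell manual patch clamp on cells stably overexpressing Nav1.8, held at -120 mV and stepped to 0 mV for 50 ms every 20 s (resting-state protocol). Compounds were perfused in ascending concentrations, each for 5 min or until stable; block of peak current was calculated at steady state.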
A general note: Patch clamp records ionic current or voltage across a cell membrane.
What is called IC50 is the concentration that gives 50% inhibition. On to `COc1c([C@@H]2C[C@](C)(C(F)(F)F)S[C@H]2C(=O)Nc2cccc(S(=O)(=O)NCCN)c2)ccc(F)c1F` [a-45-A, (2R,3S,5R)-N-(3-(N-(2-aminoethyl)sulfamoyl)phenyl)-3-(3,4-difluoro-2-methoxyphenyl)-5-methyl-5-(trifluoromethyl)tetrahydrothiophene-2-carboxamide], for which the half-inhibitory concentration (IC50) was 0.024 nM.

The molecule `COc1c([C@@H]2C[C@](C)(C(F)(F)F)S[C@H]2C(=O)Nc2ccnc(S(=O)(=O)N=[N+]=[N-])c2)ccc(F)c1F` [a-66-A, 4-((2R,3S,5R)-3-(3,4-difluoro-2-methoxyphenyl)-5-methyl-5-(trifluoromethyl)tetrahydrothiophene-2-carboxamido)pyridine-2-sulfonyl azide] gave an IC50 of 0.26 nM.

The test is the same for the next values; noted with them: concentration of 1 nM, read-out: Inhibition rate %.
Usually inhibition stands for the change of the read-out against control, counted positive when it falls. As for `COc1c([C@@H]2C[C@](C)(C(F)(F)F)S[C@H]2C(=O)Nc2cccc(-c3ncon3)c2)ccc(F)c1F` [a-42-A, (2R,3S,5R)-N-(3-(1,2,4-oxadiazol-3-yl)phenyl)-3-(3,4-difluoro-2-methoxyphenyl)-5-methyl-5-(trifluoromethyl)tetrahydrothiophene-2-carboxamide], the inhibition at 0.001 µM came to 42%.

Regarding `COc1c([C@@H]2C[C@](C)(C(F)(F)F)S[C@H]2C(=O)Nc2nn(S(=O)(=O)C(F)(F)F)cc2C)ccc(F)c1F` [a-43-A, (2R,3S,5R)-3-(3,4-difluoro-2-methoxyphenyl)-5-methyl-N-(4-methyl-1-((trifluoromethyl)sulfonyl)-1H-pyrazol-3-yl)-5-(trifluoromethane)tetrahydrothiophene-2-carboxamide], the inhibition at 0.001 µM worked out at 40.1%.

For the molecule `CCS(=O)(=O)Nc1cccc(NC(=O)[C@@H]2S[C@@](C)(C(F)(F)F)C[C@H]2c2ccc(F)c(F)c2OC)c1` [a-44-A, (2R,3S,5R)-3-(3,4-difluoro-2-methoxyphenyl)-N-(3-(ethylsulfonamido)phenyl)-5-methyl-5-(trifluoromethyl)tetrahydrothiophene-2-carboxamide], the inhibition at 0.001 µM turned out to be 49.9%.

For `COc1c([C@@H]2C[C@](C)(C(F)(F)F)S[C@H]2C(=O)N(O)c2ccnc(-c3ncon3)c2)ccc(F)c1F` [a-46-A, (2R,3S,5R)-N-(2-(1,2,4-oxadiazol-3-yl)pyridin-4-yl)-3-(3,4-difluoro-2-methoxyphenyl)-N-hydroxy-5-methyl-5-(trifluoromethyl)tetrahydrothiophene-2-carboxamide], the inhibition at 0.001 µM turned out to be 46.7%.

On to `COc1c([C@@H]2C[C@](C)(C(F)(F)F)S[C@H]2C(=O)Nc2ccnc(-c3ncon3)c2)ccc(F)c1F` [a-48-A, (2R,3S,5R)-3-(3,4-difluoro-2-methoxy-phenyl)-5-methyl-N-[2-(1,2,4-oxadiazol-3-yl)-4-pyridyl]-5-(trifluoromethyl)tetrahydrothiophene-2-carboxamide], for which the inhibition at 0.001 µM worked out at 71.9%.

For `COc1c([C@@H]2C[C@](C)(C(F)(F)F)S[C@H]2C(=O)Nc2ccnc(SCN)c2)ccc(F)c1F` [a-51-A, (2R,3S,5R)-N-(2-aminomethylthio-4-pyridyl)-3-(3,4-difluoro-2-methoxy-phenyl)-5-methyl-5-(trifluoromethyl)tetrahydrothiophene-2-carboxamide], the inhibition at 0.001 µM came to 88.5%.

As for `COc1c([C@@H]2C[C@](C)(C(F)(F)F)S[C@H]2C(=O)Nc2cccc(NS(=O)(=O)CC(C)N)c2)ccc(F)c1F` (stereo partly drawn) [a-56-A, (2R,3S,5R)-N-(3-((2-aminopropyl)sulfonamido)phenyl)-3-(3,4-difluoro-2-methoxyphenyl)-5-methyl-5-(trifluoromethyl)tetrahydrothiophene-2-carboxamide], the inhibition at 0.001 µM was determined as 66.4%.

The test is the same for the next values; noted with them: concentration of 10 nM, read-out: Inhibition rate %.
Regarding `COc1c([C@@H]2C[C@](C)(C(F)(F)F)S[C@H]2C(=O)Nc2cccc(C3N=N3)c2)ccc(F)c1F` [a-41-A, (2R,3S,5R)-N-(3-(3H-diazirin-3-yl)phenyl)-3-(3,4-difluoro-2-methoxyphenyl)-5-methyl-5-(trifluoromethyl)tetrahydrothiophene-2-carboxamide], the inhibition at 0.01 µM was 80.6%.
